According to patent US5659055A, “Cytoprotective fatty moiety compounds” (Virginia Commonwealth University, priority 1995, dated 1997):

Columns and labels:
[1] = Autooxidation of phosphatidylethanolamine
[2] = system: Human SF-PLA2 Induced Mouse Paw Edema; experiment: Human SF-PLA2 induced mouse paw edema, oral administration; assay type: in vivo
Procedure: The mouse paw edema is inhibited in dose related fashion by increasing concentrations of RISE-1 given orally 1.0 hours before induction of the edema by SF-PLA2.

[3] = Oxidation of arachidonic acid (decreased turbidity and hydroperoxide formation)

| SMILES | effect on the autooxidation of phosphatidylethanolamine [1] | oral antiinflammatory activity in this model of edema [2] | effect on the autooxidation of arachidonic acid [3] |
| --- | --- | --- | --- |
| CCCCCCCC/C=C\CCCCCCCCOC(=O)CCCCCCC/C=C\CC(CCCCCC)OC(=O)/C=C/C(=O)O (stereo not drawn) [OA1RAFA, Oleyl Alcohol-Ricinoleate-Fumaric Acid Diester] | effective inhibitors |  |  |
| CCCCC/C=C\C/C=C\CCCCCCCC(=O)OC(C/C=C\CCCCCCCC(=O)O)CCCCCC (stereo not drawn) [RALA, Ricinoleic acid--Linoleic Acid Ester] | effective inhibitors |  |  |
| CCCCCCCC/C=C\CCCCCCCC(=O)OC(C/C=C\CCCCCCCC(=O)O)CCCCCC (stereo not drawn) [RAOA, Ricinoleic Acid--Oleic Acid Ester] | effective inhibitors |  |  |
| CCCCCCC(C/C=C\CCCCCCCC(=O)O)OC(=O)CCCCCCCCC(=O)O (stereo not drawn) [RISE-1, Ricinoleic Acid--Sebacyl Ester] | no effect | has oral antiinflammatory activity | no effect |
